The record followed here is patent US9212180B2 (priority 2013, dated 2015).
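Further: fluorescence polarization competition assay, inhibitors lower the fluorescence anisotropy signal, IC50 taken from this drop.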

The target of this assay is T1, menin-MLL interaction (Homo sapiens, UniProt O00255).
T1 sequence (O00255 1-610): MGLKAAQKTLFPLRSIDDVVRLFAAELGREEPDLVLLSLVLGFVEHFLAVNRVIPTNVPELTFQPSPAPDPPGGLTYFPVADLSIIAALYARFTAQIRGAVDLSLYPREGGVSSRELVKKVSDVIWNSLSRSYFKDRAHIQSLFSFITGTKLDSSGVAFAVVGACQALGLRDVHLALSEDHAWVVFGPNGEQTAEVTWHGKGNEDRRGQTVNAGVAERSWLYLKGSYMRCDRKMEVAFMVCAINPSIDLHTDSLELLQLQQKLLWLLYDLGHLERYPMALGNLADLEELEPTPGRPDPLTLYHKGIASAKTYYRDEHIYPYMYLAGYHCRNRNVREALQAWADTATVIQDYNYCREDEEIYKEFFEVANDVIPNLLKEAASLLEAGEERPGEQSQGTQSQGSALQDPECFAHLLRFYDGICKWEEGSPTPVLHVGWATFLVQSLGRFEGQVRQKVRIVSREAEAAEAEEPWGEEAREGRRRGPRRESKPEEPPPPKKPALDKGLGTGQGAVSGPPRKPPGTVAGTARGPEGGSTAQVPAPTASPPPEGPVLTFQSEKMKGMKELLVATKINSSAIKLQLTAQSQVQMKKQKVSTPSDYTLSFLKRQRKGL
Kind of assay: biochemical.
Procedure: Fluorescence Polarization Assay.
Compounds that inhibit the interaction decrease the fluorescence anisotropy which is being used as a read-out for compound screening and for IC50 determination. For validation of the FP assay, a control competition experiment with unlabeled MLL peptide (no fluorescein attached) was performed.
Regarding `OC(c1ccccc1)(c1ccccc1)C1CCN(CCCOc2ccc(C(F)(F)F)cc2)CC1` [Compound B3], the 50% inhibitory concentration (IC50) amounted to 52 µM.

`OC(c1ccccc1)(c1ccccc1)C1CCN(CCCOc2ccc(OC(F)(F)F)cc2)CC1` [Compound B4] returned an IC50 of 98 µM.

`OC(c1ccccc1)(c1ccccc1)C1CCN(CCCOc2ccc(Cl)cc2)CC1` [Compound B5] had a half-inhibitory concentration (IC50) of 96 µM. Next, `N#Cc1ccc(OCCCN2CCC(C(O)(c3ccccc3)c3ccccc3)CC2)cc1F` [Compound B6]: 26.5 µM; `OC(c1ccccc1)(c1ccccc1)C1CCN(CCCOc2ccc(-n3ccnn3)cc2)CC1` [Compound B10, (1-(3-(4-(1H-1,2,3-triazol-1-yl)phenoxy)propyl)piperidin-4-yl)diphenylmethanol]: 29 µM.

Molecule `N#Cc1ccc(OCCCN2CCC(C(O)(c3ccccc3)c3ccc(F)cc3)CC2)cc1` (stereo not drawn) [Compound B13] had an IC50 of 77.5 µM.

Consider `[N-]=[N+]=Nc1ccc(OCCCN2CCC(C(O)(c3ccccc3)c3ccccc3)CC2)cc1` [Compound B14], for which the half-maximal inhibitory concentration (IC50) came to 58 µM.

With `COC(=O)c1ccc(OCCCN2CCC(C(O)(c3ccccc3)c3ccccc3)CC2)cc1` [Compound B16], inhibition was half-maximal at 86 µM (IC50). Next, `N#Cc1ccc(OCCCN2CCC(C(O)(c3ccccc3)C(F)(F)F)CC2)cc1` (stereo not drawn) [Compound B23]: 31 µM; `NS(=O)(=O)c1ccc(OCCCN2CCC(C(O)(c3ccccc3)c3ccccc3)CC2)cc1` [Compound B24]: 14.3 µM. To `CS(=O)(=O)NCc1ccc(OCCCN2CCC(C(O)(c3ccccc3)c3ccccc3)CC2)cc1` [Compound B25] belongs 40 µM; to `O=C(c1ccc(OCCCN2CCC(C(O)(c3ccccc3)C3CCCC3)CC2)cc1)C1CCCC1` (stereo not drawn) [Compound B26], 3.95 µM; to `NCc1ccc(OCCCN2CCC([C@](O)(c3ccccc3)C3CCCC3)CC2)cc1` [Compound B27], 13.9 µM.

In turn, `NCc1ccc(OCCCN2CCC([C@@](O)(c3ccccc3)C3CCCC3)CC2)cc1` [Compound B28] displayed an IC50 of 13.1 µM. For the molecule `Oc1ccccc1-c1ccc(OCCCN2CCC(C(O)(c3ccccc3)c3ccccc3)CC2)cc1` [Compound B29], half-maximal inhibition (IC50) was put at 8.3 µM. To `CN(C)S(=O)(=O)c1ccc(OCCCN2CCC(C(O)(c3ccccc3)c3ccccc3)CC2)cc1` [Compound B30] belongs 40 µM; to `N#Cc1ccc(OCCCN2CCC(C(O)(C3CCCC3)C3CCCC3)CC2)cc1` [Compound B31], 1.4 µM; to `N#Cc1ccc(OCCCN2CCC(C(O)(C3=CCCC3)c3ccccc3)CC2)cc1` (stereo not drawn) [Compound B32], 2.08 µM. Next, `CS(=O)(=O)c1ccc(OCCCN2CCC(C(O)(c3ccccc3)c3ccccc3)CC2)cc1` [Compound B33]: 58.5 µM; `NCc1ccc(OCCCN2CCC(C(O)(C3=CCCC3)c3ccccc3)CC2)cc1` (stereo not drawn) [Compound B34]: 13.9 µM. Next, `OC(c1ccccc1)(c1ccccc1)C1CCN(CCCOc2ccc(-c3ccncc3)cc2)CC1` [Compound B35, Diphenyl(1-(3-(4-(pyridin-4-yl)phenoxy)propyl)piperidin-4-yl)methanol]: 30.6 µM; `OC(c1ccccc1)(c1ccccc1)C1CCN(CCCOc2ccc(-c3cccnc3)cc2)CC1` [Compound B36]: 22.6 µM; `OC(c1ccccc1)(c1ccccc1)C1CCN(CCCOc2ccncc2)CC1` [Compound B37]: 25 µM. With `CC(=O)NCc1ccc(OCCCN2CCC(C(O)(c3ccccc3)c3ccccc3)CC2)cc1` [Compound B38], the IC50 came to 20.7 µM. Next, `OC(c1ccccc1)(c1ccccc1)C1CCN(CCCOc2ccc(-c3cncnc3)cc2)CC1` [Compound B39]: 83 µM; `N#CCc1ccc(OCCCN2CCC(C(O)(c3ccccc3)c3ccccc3)CC2)cc1` [Compound B40]: 17.4 µM; `N#Cc1ccc(OC[C@H](O)CN2CCC(C(O)(c3ccccc3)C3CCCC3)CC2)cc1` (stereo partly drawn) [Compound B41]: 1.15 µM. To `N#Cc1ccc(NCCCN2CCC(C(O)(c3ccccc3)c3ccccc3)CC2)cc1` [Compound B42] belongs 9.56 µM; to `N#Cc1ccc(OC[C@@H](O)CN2CCC(C(O)(c3ccccc3)C3CCCC3)CC2)cc1` (stereo partly drawn) [Compound B43], 0.948 µM. As for `CS(=O)(=O)c1ccc(OC[C@@H](O)CN2CCC(C(O)(c3ccccc3)c3ccccc3)CC2)cc1` [Compound B45], the IC50 was found to be 21 µM. In turn, `Cc1ccc(OC[C@@H](O)CN2CCC(C(O)(c3ccccc3)c3ccccc3)CC2)cc1` [Compound B46] gave a 50% inhibitory concentration (IC50) of 100 µM. On to `O[C@H](COc1ccc(Cl)cc1)CN1CCC(C(O)(c2ccccc2)c2ccccc2)CC1` [Compound B47], for which inhibition was half-maximal at 40 µM (IC50). Next, `O[C@H](COc1ccc(OC(F)(F)F)cc1)CN1CCC(C(O)(c2ccccc2)c2ccccc2)CC1` [Compound B48]: 31 µM.

`CC(COc1ccc(C#N)c(F)c1)CN1CCC(C(O)(c2ccccc2)c2ccccc2)CC1` (stereo not drawn) [Compound B49] had a half-maximal inhibitory concentration (IC50) of 70.8 µM. Next, `N#Cc1ccc(OC[C@@H](O)CN2CCC(C(O)(c3ccccc3)c3ccccc3)CC2)c(F)c1` [Compound B50]: 40 µM. Next, `N#Cc1ccc(OC[C@@H](O)CN2CCC(C(O)(c3ccccc3)c3ccccc3)CC2)cc1F` [Compound B51]: 15 µM. Next, `CC(CCN1CCC(C(O)(c2ccccc2)c2ccccc2)CC1)Oc1ccc([N+](=O)[O-])cc1Cl` (stereo not drawn) [Compound B52]: 55 µM; `CCOC(c1ccccc1)(c1ccccc1)C1CCN(CCCOc2ccc(C#N)cc2)CC1` [Compound B54]: 5.3 µM.

Take `COC(c1ccccc1)(c1ccccc1)C1CCN(CCCOc2ccc(C#N)cc2)CC1` [Compound B55]: the midpoint of inhibition, the IC50, lay at 5.3 µM. Next, `CN(C)CCOC(c1ccccc1)(c1ccccc1)C1CCN(CCCOc2ccc(C#N)cc2)CC1` [Compound B56]: 4.2 µM; `COc1ccc(C(O)(C2CCCC2)C2CCN(CCCOc3ccc(C#N)cc3)CC2)cn1` (stereo not drawn) [Compound B57]: 75 µM; `N#Cc1ccc(OCCCN2CCC(C(O)(Cc3ccccc3)C3=CCCC3)CC2)cc1` (stereo not drawn) [Compound B59]: 11.3 µM. In turn, `N#Cc1ccc(OCCCN2CCC(C(O)(c3ccccc3)C3CCCC3)CC2)cn1` (stereo not drawn) [Compound B61] gave an IC50 of 8.94 µM. To `COC(c1ccccc1)(C1CCCC1)C1CCN(CCCOc2ccc(C#N)cc2)CC1` (stereo not drawn) [Compound B62] belongs 0.743 µM. Next, `N#Cc1ccc(OCCCN2CCC(C(O)(C3CCCC3)C3CCCCN3)CC2)cc1` (stereo not drawn) [Compound B63]: 28 µM; `N#Cc1ccc(OCCCN2CCC(C(O)(c3ccccn3)C3CCCC3)CC2)cn1` (stereo not drawn) [Compound B64]: 4.05 µM; `COc1cccc(C(O)(C2CCCC2)C2CCN(CCCOc3ccc(C#N)cc3)CC2)c1` (stereo not drawn) [Compound B68]: 1.1 µM. Regarding `N#Cc1ccc(OCCCN2CCC(C(O)(c3cc(F)cc(F)c3)c3ccccn3)CC2)cc1` (stereo not drawn) [Compound B81], the half-maximal inhibitory concentration (IC50) was 0.9 µM.

With `NS(=O)(=O)c1ccc(OCCCN2CCC(C(O)(c3cccc(F)c3)c3nccs3)CC2)cc1` (stereo not drawn) [Compound B82], half-maximal inhibition (IC50) required 0.354 µM.

`N#Cc1ccc(OCCCN2CCC(C(O)(c3cccc(F)c3)c3nccs3)CC2)cc1` (stereo not drawn) [Compound B83] registered a half-maximal inhibitory concentration (IC50) of 0.407 µM. To `N#Cc1ccc(OCC(O)CN2CCC(C(O)(c3cccc(F)c3)c3ccccn3)CC2)cc1` (stereo not drawn) [Compound B86, 4-(3-(4-((3-Fluorophenyl)(hydroxy)(pyridin-2-yl)methyl)piperidin-1-yl)-2-hydroxypropoxy)benzonitrile] belongs 0.222 µM.
